# Experimental data from publication PMC7093416, “Selective USP7 inhibition elicits cancer cell killing through a p53-dependent mechanism” (Scientific Reports, 2020).
# System: panel of 484 cancer cell lines
# Test: PRISM cancer cell line profiling, 5 days
# Format: cell-based
# Parameters: AUC: unit not given beside the values
# Protocol: Cancer cell line profiling was performed using the Broad’s PRISM platform. Cell treatment and data analysis were performed as described in Yu et al[42]. Raw Luminex signal was converted to AUC values for each cell line as described. The resulting AUC profile for each compound was modeled against DepMap using the limma package in R[71]. Because hotspot mutation analysis was performed against DepMap, TP53 annotations in Fig. 6c,d are directly from DepMap.
smiles,measurement,setting,value
CN1CCN(CCC(=O)Nc2ccc3c(=O)n(CC4(O)CCN(C(=O)[C@@H](CCCNC(=O)c5ccc6c(Cl)c7c(nc6c5)CCCC7)Cc5ccccc5)CC4)cnc3c2)CC1 [XL177A],AUC,8MGBA_CENTRAL_NERVOUS_SYSTEM,1.174
same,AUC,22RV1_PROSTATE,0.9618
same,AUC,42MGBA_CENTRAL_NERVOUS_SYSTEM,1
same,AUC,253JBV_URINARY_TRACT,0.9502
same,AUC,253J_URINARY_TRACT,1.095
same,AUC,639V_URINARY_TRACT,0.832
same,AUC,647V_URINARY_TRACT,1.06
same,AUC,769P_KIDNEY,1.126
same,AUC,786O_KIDNEY,1.266
same,AUC,5637_URINARY_TRACT,1.038
same,AUC,8305C_THYROID,1.048
same,AUC,8505C_THYROID,0.9221
same,AUC,2313287_STOMACH,1.154
same,AUC,A101D_SKIN,1.013
same,AUC,A172_CENTRAL_NERVOUS_SYSTEM,0.8471
same,AUC,A204_SOFT_TISSUE,0.8422
same,AUC,A375_SKIN,1.23
same,AUC,A549_LUNG,0.8217
same,AUC,A673_BONE,1.349
same,AUC,A704_KIDNEY,1.109
same,AUC,A2058_SKIN,0.9507
same,AUC,A2780_OVARY,0.804
same,AUC,ABC1_LUNG,1.07
same,AUC,ACCMESO1_PLEURA,1.035
same,AUC,ACHN_KIDNEY,1.124
same,AUC,AGS_STOMACH,0.9408
same,AUC,AN3CA_ENDOMETRIUM,0.9198
same,AUC,ASPC1_PANCREAS,1.1544
same,AUC,BC3C_URINARY_TRACT,1.1182
same,AUC,BCPAP_THYROID,0.9965
same,AUC,BECKER_CENTRAL_NERVOUS_SYSTEM,0.8518
same,AUC,BEN_LUNG,1.124
same,AUC,BFTC905_URINARY_TRACT,0.8686
same,AUC,BFTC909_KIDNEY,0.9138
same,AUC,BHT101_THYROID,0.9801
same,AUC,BICR6_UPPER_AERODIGESTIVE_TRACT,0.8445
same,AUC,BICR16_UPPER_AERODIGESTIVE_TRACT,0.8236
same,AUC,BICR31_UPPER_AERODIGESTIVE_TRACT,0.8691
same,AUC,BICR56_UPPER_AERODIGESTIVE_TRACT,0.8298
same,AUC,BT474_BREAST,1.426
same,AUC,BT549_BREAST,0.9189
same,AUC,BXPC3_PANCREAS,1.188
same,AUC,CADOES1_BONE,1.097
same,AUC,CAKI1_KIDNEY,1.0035
same,AUC,CAL12T_LUNG,1.065
same,AUC,CAL27_UPPER_AERODIGESTIVE_TRACT,0.8579
same,AUC,CAL29_URINARY_TRACT,0.9717
same,AUC,CAL51_BREAST,0.9698
same,AUC,CAL54_KIDNEY,1.122
same,AUC,CAL62_THYROID,0.9897
same,AUC,CAL78_BONE,0.8669
same,AUC,CAL120_BREAST,0.8877
same,AUC,CALU1_LUNG,1.403
same,AUC,CALU6_LUNG,0.9933
same,AUC,CAMA1_BREAST,0.994
same,AUC,CAOV3_OVARY,1.046
same,AUC,CAPAN2_PANCREAS,1.09
same,AUC,CCFSTTG1_CENTRAL_NERVOUS_SYSTEM,0.9028
same,AUC,CFPAC1_PANCREAS,1.131
same,AUC,CHL1_SKIN,1.028
same,AUC,CJM_SKIN,0.9117
same,AUC,CL34_LARGE_INTESTINE,1.2091
same,AUC,COLO668_LUNG,0.9325
same,AUC,COLO679_SKIN,0.9271
same,AUC,COLO680N_OESOPHAGUS,0.903
same,AUC,COLO741_SKIN,1.181
same,AUC,COLO783_SKIN,0.896
same,AUC,COLO792_SKIN,1.217
same,AUC,COLO800_SKIN,0.9306
same,AUC,CORL23_LUNG,0.9099
same,AUC,CORL105_LUNG,0.9151
same,AUC,COV362_OVARY,0.9501
same,AUC,COV434_OVARY,0.6134
same,AUC,DANG_PANCREAS,1.103
same,AUC,DAOY_CENTRAL_NERVOUS_SYSTEM,0.9019
same,AUC,DBTRG05MG_CENTRAL_NERVOUS_SYSTEM,0.986
same,AUC,DETROIT562_UPPER_AERODIGESTIVE_TRACT,0.8984
same,AUC,DKMG_CENTRAL_NERVOUS_SYSTEM,1.055
same,AUC,DMS273_LUNG,0.9756
same,AUC,DU145_PROSTATE,0.9953
same,AUC,DV90_LUNG,0.6429
same,"∆ (AUC, TP53 mutation vs WT; decreased sensitivity)",DepMap TP53 mutation annotation,0.0512
same,AUC,EBC1_LUNG,0.8513
same,AUC,ECGI10_OESOPHAGUS,1.105
same,AUC,EFM192A_BREAST,1.042
same,AUC,EFO21_OVARY,0.9443
same,AUC,EFO27_OVARY,0.9949
same,AUC,EN_ENDOMETRIUM,1.056
same,AUC,ES2_OVARY,1.069
same,AUC,ESS1_ENDOMETRIUM,0.9952
same,AUC,EWS502_BONE,1.4146
same,AUC,FADU_UPPER_AERODIGESTIVE_TRACT,1.156
same,AUC,FTC133_THYROID,0.8526
same,AUC,FTC238_THYROID,0.8658
same,AUC,G292CLONEA141B1_BONE,1.276
same,AUC,G361_SKIN,1.1047
same,AUC,G401_SOFT_TISSUE,0.6407
same,AUC,G402_SOFT_TISSUE,0.5799
same,AUC,GAMG_CENTRAL_NERVOUS_SYSTEM,1.102
same,AUC,GB1_CENTRAL_NERVOUS_SYSTEM,1.09
same,AUC,GCIY_STOMACH,1.0232
same,AUC,GCT_SOFT_TISSUE,1.012
same,AUC,GI1_CENTRAL_NERVOUS_SYSTEM,1.111
same,AUC,GMS10_CENTRAL_NERVOUS_SYSTEM,1.007
same,AUC,GOS3_CENTRAL_NERVOUS_SYSTEM,0.7415
same,AUC,GP2D_LARGE_INTESTINE,1.073
same,AUC,H4_CENTRAL_NERVOUS_SYSTEM,0.8128
same,AUC,HARA_LUNG,1.29
same,AUC,HCC15_LUNG,0.9559
same,AUC,HCC38_BREAST,1.2075
same,AUC,HCC44_LUNG,0.9515
same,AUC,HCC56_LARGE_INTESTINE,1.407
same,AUC,HCC78_LUNG,1.024
same,AUC,HCC95_LUNG,0.9165
same,AUC,HCC366_LUNG,0.9914
same,AUC,HCC827_LUNG,0.8612
same,AUC,HCC1143_BREAST,1.083
same,AUC,HCC1195_LUNG,0.8483
same,AUC,HCC1359_LUNG,1.123
same,AUC,HCC1419_BREAST,1.047
same,AUC,HCC1428_BREAST,0.8065
